Data reported in patent publication US20210179680A1, “POLYPEPTIDE, DERIVATIVES THEREOF, AND APPLICATION THEREOF IN PREPARATION OF DRUGS HAVING RESISTANCE TO PULMONARY FIBROSIS” (priority 2016, published 2021).
Bridge positions count the residues as written; N and C are the ends. Square brackets hold non-standard residues; d marks the D form. Peptide text beside a SMILES is read from it. S5 = C=CCCC[C@](C)(N)C(=O)O

Assays:
[1] = biological target: T1, TRB3/MDM2 protein interaction (Homo sapiens, UniProt Q96RU7); assay: Co-immunoprecipitation: inhibition of binding of MDM2 to TRB3 in BEAS-2B cells; assay type: cell-based; details: BEAS-2B cells with TRB3 expression plasmid, 1 mg/mL polypeptide, 12 hours, co-IP with MDM2 antibody
T1 construct: host or cells: BEAS-2B
T1 sequence (Q96RU7 1-358): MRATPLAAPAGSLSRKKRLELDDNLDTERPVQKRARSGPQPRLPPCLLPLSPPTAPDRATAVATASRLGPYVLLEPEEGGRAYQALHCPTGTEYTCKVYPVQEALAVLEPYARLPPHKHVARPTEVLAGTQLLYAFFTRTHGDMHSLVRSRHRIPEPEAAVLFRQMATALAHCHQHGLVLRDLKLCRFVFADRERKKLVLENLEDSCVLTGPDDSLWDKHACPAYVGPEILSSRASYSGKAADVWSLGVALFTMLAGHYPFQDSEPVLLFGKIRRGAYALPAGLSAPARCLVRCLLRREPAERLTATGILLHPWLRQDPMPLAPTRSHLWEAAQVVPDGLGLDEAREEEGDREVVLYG
Protocol: 1. Human lung epithelial BEAS-2B cells (purchased from Institute of Basic Medical Sciences, Chinese Academy of Medical Sciences) were seeded in a 90 mm^2 culture dish. After the cells were adhered to the wall of culture dish, the TRB3 expression plasmid were transferred to the cells according to the method described in Example 5. After 24 hours, 1 mg/mL of the polypeptides MR2, S1, S2, S3, S4, S5, S6, S7, S8, S9, S10 or S11 prepared in Example 1 were added respectively, and the cells were incubated for 12 hours in a 37° C. incubator and then harvested.
2. Co-immunoprecipitation with MDM2 antibody was performed according to the method described in Example 3, followed by detection using TRB3 antibody.

[2] = tested on: mice with bleomycin-induced pulmonary fibrosis; assay: HE staining pathomorphology and inflammatory score of bleomycin-induced pulmonary fibrosis; assay type: in vivo, C57BL/6 mice; details: Table 3 groups, 2 mg/kg i.p., after 28 days, grade 0-5
Protocol: Male C57BL/6 mice were fasted overnight, then anesthetized with 45 mg/kg sodium pentobarbital by injection intraperitoneally (i.p.), and intratracheally injected with bleomycin at a dose of 3 U/kg. The specific operation steps are as follows: cut the neck skin of the mouse with as little trauma as possible, expose the trachea with the assistance of elbow ophthalmic forceps, puncture the trachea and inject about 50 μL of bleomycin into the trachea with a microsyringe, rotate the mouse quickly and stand it upright for 5 minutes in order to make bleomycin evenly enter the left and right lobe, thereby constructing an animal model. The whole operation was performed at a surgical table at about […]. Mice in the sham operation group were intratracheally injected with an equal amount of physiological saline for injection.
General tissue changes and tissue products can be visualized by HE staining method, namely Hematoxylin and Eosin staining method, which is the most commonly used staining method for morphology. Among them, hematoxylin dyeing solution is an alkaline dyeing solution, which mainly makes the chromatin in the nucleus and the ribosome in the cytoplasm purple blue; eosin is an acid dye, which mainly makes the components in the cytoplasm and extracellular matrix red. Pulmonary fibrosis models were made according to the method described in Example 2 and administered in groups according to Table 3. After 28 days, the right lower lobe of lung tissue of the experimental animals was taken, and fixed with 4% (v/v) paraformaldehyde and embedded in paraffin. Section was performed on the largest cross-section of the paraffin block in which the lung tissue embedded, and basic pathological changes was observed through HE staining. […] The administration of polypeptides S1-S11 can reduce lung inflammation caused by bleomycin, and effectively ameliorate lung injury and restore normal lung structure.
The inflammatory grading was observed according to the results of HE staining, and the criteria were as follows (grade 0-5): grade “0”: normal tissue; grade “1”: extremely small inflammatory changes; grade “2”: mild to moderate inflammatory changes without apparent destruction of lung tissue structure; grade “3”: moderate inflammatory injury (thickening of alveolar diaphragm); grade “4”: moderate to severe inflammatory injury with formation of tissue mass, or the normal structure of lung tissue was destroyed by localized pneumonia area; grade “5”: severe inflammatory injury, severe destruction of the localized lung tissue structure, resulting in closure of lumen.
Pulmonary fibrosis models were made according to the method described in Example 2 and administered in groups according to Table 9. After 28 days, the right lower lobe of lung tissue of the experimental animals was taken, and fixed by 4% (v/v) paraformaldehyde and embedded in paraffin. Section was performed on the largest cross-section of the paraffin block in which the lung tissue embedded, and basic pathological changes was observed through HE staining.

| Structure (SMILES) | interaction of TRB3 and MDM2 protein (FIG. 5, in words) [1] | Inflammatory score [2] |
| --- | --- | --- |
| CSCC[C@H](NC(=O)[C@H](CC(C)C)NC(=O)[C@@H](N)Cc1c[nH]cn1)C(=O)N[C@@H](C)C(=O)N[C@@H](CS)C(=O)N[C@@H](Cc1ccccc1)C(=O)N[C@H](C(=O)N[C@@H](CS)C(=O)N[C@@]1(C)CCCC=CCCC[C@@](C)(C(=O)N[C@@H](CCCCN)C(=O)N[C@@H](CCCNC(=N)N)C(=O)O)NC(=O)[C@H](CC(C)C)NC(=O)[C@H](CCCCN)NC(=O)[C@H](CCCCN)NC1=O)[C@@H](C)O [S9, His-Leu-Met-Ala-Cys-Phe-Thr-Cys-S5-Lys-Lys-Leu-S5-Lys-Arg] (H-HLMACFTC[S5]KKL[S5]KR-OH; staple 9-13; N-terminus and C-terminus assumed) | interrupted | 2.167 |
| CSCC[C@H](NC(=O)[C@H](CC(C)C)NC(=O)[C@@H](N)Cc1c[nH]cn1)C(=O)N[C@@H](C)C(=O)N[C@@H](CS)C(=O)N[C@@H](Cc1ccccc1)C(=O)N[C@H](C(=O)N[C@@H](CS)C(=O)N[C@@H](C)C(=O)N[C@@]1(C)CCCC=CCCC[C@@](C)(C(=O)N[C@@H](CCCNC(=N)N)C(=O)O)NC(=O)[C@H](CCCCN)NC(=O)[C@H](CC(C)C)NC(=O)[C@H](CCCCN)NC1=O)[C@@H](C)O [S10, His-Leu-Met-Ala-Cys-Phe-Thr-Cys-Ala-S5-Lys-Leu-Lys-S5-Arg] (H-HLMACFTCA[S5]KLK[S5]R-OH; staple 10-14; N-terminus and C-terminus assumed) | interrupted | 3 |
| CSCC[C@H](NC(=O)[C@H](CC(C)C)NC(=O)[C@@H](N)Cc1c[nH]cn1)C(=O)N[C@@H](C)C(=O)N[C@@H](CS)C(=O)N[C@@H](Cc1ccccc1)C(=O)N[C@H](C(=O)N[C@@H](CS)C(=O)N[C@@H](C)C(=O)N[C@@H](CCCCN)C(=O)N[C@@]1(C)CCCC=CCCC[C@@](C)(C(=O)O)NC(=O)[C@H](CCCCN)NC(=O)[C@H](CCCCN)NC(=O)[C@H](CC(C)C)NC1=O)[C@@H](C)O [S11, His-Leu-Met-Ala-Cys-Phe-Thr-Cys-Ala-Lys-S5-Leu-Lys-Lys-S5] (H-HLMACFTCAK[S5]LKK[S5]-OH; staple 11-15; N-terminus and C-terminus assumed) | interrupted | 3 |
